Experimental data from ChEMBL document CHEMBL4145590, “SAR Studies of N-[2-(1H-Tetrazol-5-yl)phenyl]benzamide Derivatives as Potent G Protein-Coupled Receptor-35 Agonists” (ACS Med Chem Lett, 2018).
Activity calls are given as the source filed them. The calls are words filed in the database; no cut-off is given here.

Columns and labels:
[1] = molecular target: T1, G-protein coupled receptor 35 (Homo sapiens, UniProt Q9HC97); assay: Agonist activity at GPR35 in human HT-29 cells by dynamic mass redistribution assay; type: functional, cell-based
T1 sequence (Q9HC97 whole entry): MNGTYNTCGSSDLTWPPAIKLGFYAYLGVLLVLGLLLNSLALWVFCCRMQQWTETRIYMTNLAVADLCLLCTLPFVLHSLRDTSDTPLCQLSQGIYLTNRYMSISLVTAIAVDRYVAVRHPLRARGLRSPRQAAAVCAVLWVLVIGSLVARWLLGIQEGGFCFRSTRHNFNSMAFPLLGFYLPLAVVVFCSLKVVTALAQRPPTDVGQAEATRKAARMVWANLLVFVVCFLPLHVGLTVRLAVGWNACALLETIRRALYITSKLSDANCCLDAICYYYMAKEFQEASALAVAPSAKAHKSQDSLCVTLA

[2] = molecular target: T1, G-protein coupled receptor 35; assay: Agonist activity at GPR35 in human HT-29 cells in presence of GPR35 antagonist ML-145 by dynamic mass redistribution assay; type: functional, cell-based
[3] = molecular target: T1, G-protein coupled receptor 35; assay: Desensitization of GPR35 in human HT-29 cells assessed as inhibition of zaprinast-induced dynamic mass redistribution pretreated for 1 hr followed by zaprinast stimulation; type: functional, cell-based
[4] = molecular target: G protein-coupled receptor GPR35 (Rattus norvegicus, UniProt Q33BM1); assay: Agonist activity at recombinant rat N-terminal FLAG/eYFP-fused GPR35 expressed in HEK293 cells assessed as induction of beta-arrestin recruitment by BRET assay; type: functional, cell-based
Chain of G protein-coupled receptor GPR35 (Q33BM1 whole entry, the tested form may be a part): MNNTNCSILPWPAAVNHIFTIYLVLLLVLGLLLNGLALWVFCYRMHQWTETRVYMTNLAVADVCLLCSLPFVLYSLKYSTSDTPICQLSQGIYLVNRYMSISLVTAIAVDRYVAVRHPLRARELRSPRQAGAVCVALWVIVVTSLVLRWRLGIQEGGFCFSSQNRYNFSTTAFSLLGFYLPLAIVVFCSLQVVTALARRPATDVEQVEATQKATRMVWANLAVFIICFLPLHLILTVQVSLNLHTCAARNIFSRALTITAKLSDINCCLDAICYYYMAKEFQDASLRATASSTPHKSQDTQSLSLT

[5] = molecular target: T1, G-protein coupled receptor 35; assay: Agonist activity at GPR35 in human HT-29 cells assessed as increase in ERK1/2 phosphorylation at 0.1 to 1 uM after 15 mins by Western blot analysis; type: functional, cell-based
[6] = molecular target: T1, G-protein coupled receptor 35; assay: Agonist activity at GPR35 in human HT-29 cells assessed as increase in ERK1/2 phosphorylation at 0.1 to 1 uM pretreated for 10 mins followed by GPR35 antagonist ML-145 addition measured after 5 mins by Western blot analysis; type: functional, cell-based
[7] = molecular target: T1, G-protein coupled receptor 35; assay: Agonist activity at recombinant human N-terminal FLAG/eYFP-fused GPR35a expressed in CHOK1 cells assessed as induction of beta-arrestin recruitment by path hunter assay; type: cell-based

Row | Compound | Activity [1] | EC50 ([1]; read-out: EC50) | Activity [2] | IC50 [3] | EC50 [4] | Activity [5] | Activity [6] | EC50 [7] | EC50 ([1]; ht-29)
1 | COc1ccc(C(=O)Nc2cc(Br)ccc2-c2nnn[nH]2)cc1OC | Dose-dependent effect | 830 nM | inactive | 260 nM | – | – | – | – | –
2 | O=C(Nc1cc(Br)ccc1-c1nnn[nH]1)c1cccc(F)c1 | Dose-dependent effect | 610 nM | inactive | 210 nM | – | – | – | – | –
3 | O=C(Nc1cc(Br)ccc1-c1nnn[nH]1)c1ccccc1 | Dose-dependent effect | 870 nM | inactive | 300 nM | – | – | – | – | –
4 | O=C(Nc1cc(Br)ccc1-c1nnn[nH]1)c1ccc(F)cc1 | Dose-dependent effect | 450 nM | inactive | 160 nM | – | – | – | – | –
5 | O=C(Nc1cc(Br)ccc1-c1nnn[nH]1)c1ccccc1F | Dose-dependent effect | 350 nM | inactive | 170 nM | – | – | – | – | –
6 | O=C(Nc1cc(Br)ccc1-c1nnn[nH]1)c1cccc(Cl)c1 | Dose-dependent effect | 2180 nM | inactive | 480 nM | – | – | – | – | –
7 | Cc1ccc(C(=O)Nc2cc(Br)ccc2-c2nnn[nH]2)cc1 | Dose-dependent effect | 1330 nM | inactive | 510 nM | – | – | – | – | –
8 | Cc1ccccc1C(=O)Nc1cc(Br)ccc1-c1nnn[nH]1 | Dose-dependent effect | 2050 nM | inactive | 810 nM | – | – | – | – | –
9 | CCC(=O)Nc1cc(Br)ccc1-c1nnn[nH]1 | Dose-dependent effect | 620 nM | inactive | 700 nM | – | – | – | – | –
10 | COc1ccc(C(=O)Nc2ccc(-c3nnn[nH]3)cc2)cc1 | Dose-dependent effect | 17600 nM | inactive | 8360 nM | – | – | – | – | –
11 | O=C(Nc1cc(Br)ccc1-c1nnn[nH]1)C1CCCCC1 | Dose-dependent effect | 440 nM | inactive | 200 nM | – | – | – | – | –
12 | O=C(Nc1cc(Br)ccc1-c1nnn[nH]1)c1ccco1 | Dose-dependent effect | 1060 nM | inactive | 440 nM | – | – | – | – | –
13 | CC(C)C(=O)Nc1cc(Br)ccc1-c1nnn[nH]1 | Dose-dependent effect | 380 nM | inactive | 280 nM | – | – | – | – | –
14 | COc1ccc(C(=O)Nc2cc(Br)ccc2-c2nnn[nH]2)c(F)c1 | Dose-dependent effect | 41 nM | inactive | 14 nM | – | – | – | – | –
15 | O=C(Nc1cc(Br)ccc1-c1nnn[nH]1)c1ccccc1Cl | Dose-dependent effect | 870 nM | inactive | 410 nM | – | – | – | – | –
16 | COc1ccc(C(=O)Nc2cc(F)ccc2-c2nnn[nH]2)cc1 | Dose-dependent effect | 200 nM | inactive | 82 nM | – | – | – | – | –

Row | Compound | Activity [1] | EC50 ([1]; read-out: EC50) | Activity [2] | IC50 [3] | EC50 [4] | Activity [5] | Activity [6] | EC50 [7] | EC50 ([1]; ht-29)
17 | O=C(Nc1cc(Br)ccc1-c1nnn[nH]1)c1ccc(Cl)cc1 | Dose-dependent effect | 520 nM | inactive | 210 nM | – | – | – | – | –
18 | O=C(Nc1cc(Br)ccc1-c1nnn[nH]1)c1ccc(C(F)(F)F)cc1 | Dose-dependent effect | 3650 nM | inactive | 1360 nM | – | – | – | – | –
19 | COc1cccc(C(=O)Nc2cc(Br)ccc2-c2nnn[nH]2)c1 | Dose-dependent effect | 1940 nM | inactive | 810 nM | – | – | – | – | –
20 | Cc1cccn2c(=O)c(-c3nnn[nH]3)cnc12 [PEMIROLAST] | – | – | – | – | 95 nM | – | – | – | –
21 | O=C(Nc1cc(Br)ccc1-c1nnn[nH]1)c1cccs1 | Dose-dependent effect | 510 nM | inactive | 260 nM | – | – | – | – | –
22 | O=C(Nc1cc(Br)ccc1-c1nnn[nH]1)c1ccc(Cl)cc1Cl | Dose-dependent effect | 310 nM | inactive | 110 nM | – | – | – | – | –
23 | Nc1ccc(Br)cc1-c1nnn[nH]1 | Dose-dependent effect | 44100 nM | inactive | 75300 nM | – | – | – | – | –
24 | COc1ccccc1C(=O)Nc1cc(Br)ccc1-c1nnn[nH]1 | Dose-dependent effect | 860 nM | inactive | 400 nM | – | – | – | – | –
25 | COc1ccc(C(=O)Nc2cc(Br)ccc2-c2nnn[nH]2)cc1 | Dose-dependent effect | 59 nM | inactive | 26 nM | – | Active | inactive | – | –
26 | O=C1c2ccccc2S(=O)(=O)c2cc(-c3nnn[nH]3)ccc21 [DOXANTRAZOLE] | – | – | – | – | – | – | – | 3400 nM | –
27 | O=C(Nc1cc(Br)ccc1-c1nnn[nH]1)c1ccc(F)cc1F | Dose-dependent effect | 130 nM | inactive | 60 nM | – | Active | inactive | – | –
28 | COc1ccc(C(=O)Nc2ccccc2-c2nn[nH]n2)cc1 | Dose-dependent effect | 650 nM | inactive | 280 nM | – | – | – | – | –
29 | COc1ccc(C(=O)Nc2ccc(Br)cc2-c2nnn[nH]2)cc1 | Dose-dependent effect | 300 nM | inactive | 110 nM | – | – | – | – | –
30 | COc1ccc(C(=O)Nc2ccccc2C#N)cc1 | – | – | inactive | – | – | – | – | – | Not Active
31 | Cc1cccc(C(=O)Nc2cc(Br)ccc2-c2nnn[nH]2)c1 | Dose-dependent effect | 860 nM | inactive | 360 nM | – | – | – | – | –
32 | O=C(Nc1cc(Br)ccc1-c1nnn[nH]1)c1cccc(C(F)(F)F)c1 | Dose-dependent effect | 4600 nM | inactive | 1280 nM | – | – | – | – | –
